From patent US20100010078A1, “METHODS OF TREATING ANDROGEN DEPENDENT PROSTATE CANCER BY ADMINISTERING AN ACTIVE PHARMACEUTICAL INGREDIENT BEING FISETIN, 3,3',4',7-TETRAHYDROXYFLAVONE OR A DERIVATIVE THEREOF, IN AN ORAL, TRANSDERMAL OR TOPICAL DOSAGE FORM” (priority 2008, published 2010)

Key:
[1] = test system: Bad, Bax, Bcl2 and Bcl-xL; assay: Silencing of Akt by siRNA, Bcl2-family proteins in LNCaP cells; type: cell-based, human; conditions: LNCaP transfected with Akt-siRNA, fisetin 40 μM, 48 h
Experimental: Silencing of Akt by Small Interfering RNA. LNCaP cells were transfected with Akt-siRNA (75 nmol) and scrambled siRNA (75 nmol) procured from Dharmacon (Lafayette, Colo.) using the Nucleofection Kit R specific for LNCaP transfection from Amaxa Biosystems (Gaithersburg, Md.). Cells were resuspended in a solution from nucleofector kit R following the manufacturer's guidelines. 100 μl of nucleofector solution R was mixed with 2×10^6 cells and siRNA. They were then transferred to the cuvette provided with the kit and were nucleofected with an Amaxa Nucleofector apparatus. Cells were transfected using the T-001 pulsing parameter and were transferred into 100-mm plates containing 37° C. prewarmed culture medium. After transfection, cells were cultured and the medium was replaced with fresh medium. Cells were treated with 40 μM fisetin for 48 h, and protein lysates were prepared. Using 2 μg of GFP we observed 70-80% transfection efficiency with this protocol.

cytochrome c = assay: Detection of cytochrome c release into cytosol; type: cell-based, human; conditions: LNCaP, fisetin 10-60 μM, 48 h
Experimental: Detection of cytochrome c release. After the treatment of LNCaP cells with fisetin (10-60 μM; 48 h), the mitochondrial and cytosolic fractions were prepared according to manufacturer's instructions. After the separation of cytosolic and mitochondrial fraction, 40 μg protein was resolved over 12% polyacrylamide gels and immunoblotted with the cytochrome c and Cox-4 antibodies.

Bax and Bcl-2 = assay: Western blot, Bax and Bcl-2 in LNCaP cells; type: cell-based, human; conditions: fisetin 10-60 μM, 48 h
Experimental: (§1) Protein extraction and western blotting. Following the treatment of LNCaP cells with fisetin (10-60 μM; 48 h), the media was aspirated, the cells were washed with cold PBS (pH 7.4), and ice-cold lysis buffer (50 mM Tris-HCl, 150 mM NaCl, 1 mM EGTA, 1 mM EDTA, 20 mM NaF, 100 mM Na3VO4, 0.5% NP-40, 1% Triton X-100, 1 mM PMSF (pH 7.4)) with freshly added protease inhibitor cocktail (Protease Inhibitor Cocktail Set III, Calbiochem, La Jolla, Calif.) over ice for 30 min. The cells were scraped and the lysate was collected in a microfuge tube and passed through a needle to break up the cell aggregates. The lysate was cleared by centrifugal ion al 14,000 g for 15 min at 4° C. and the supernatant (whole cell lysate) was used or immediately stored at −8020 C.
(§2) For western blotting, 30-50 μg protein was resolved over 8-12% polyacrylamide gels and transferred to a nitrocellulose membrane. The blot was blocked in blocking buffer (5% nonfat dry milk/1% Tween 20; in 20 mM TBS, pH 7.6) for 1 hr at room temperature, incubated with appropriate monoclonal or polyclonal primary antibody in blocking buffer for 1.5 h to overnight at 4° C., followed by incubation with anti-mouse or anti-rabbit secondary antibody horseradish peroxidase conjugate obtained from Amersham Life Science Inc. and detected by chemiluminescence and autoradiography using XAR-5 film obtained from Eastman Kodak Co. (Rochester, N.Y., USA). Densitometric measurements of the band in Western blot analysis were performed using digitalized scientific software program UN-SCAN-IT (Silk Scientific Corporation. Orem, Utah.

XIAP and Smac/DIABLO = assay: Western blot, XIAP and Smac/DIABLO in LNCaP cells; type: cell-based, human; conditions: fisetin 10-60 μM, 48 h
Experimental: as §1, with “The lysate was cleared by centrifugal ion al 14,000 g for 15 min at 4° C. and the supernatant (whole cell lysate) was used or immediately stored at −8020 C.” left out
as §2, with “Densitometric measurements of the band in Western blot analysis were performed using digitalized scientific software program UN-SCAN-IT (Silk Scientific Corporation. Orem, Utah.” left out

LNCaP cells = assay: Apoptosis by Cell Death Detection ELISAPLUS; type: cell-based, human; conditions: 48 h
Experimental: Apoptosis by ELISA. Following treatment of LNCaP cells with fisetin (10-60 μM; 48 h), the extent of apoptosis was determined by Cell Death Detection ELISA^PLUS assay, according to the manufacturer's protocol. The whole cell lysate (40 μg of total protein) was added to the lysis buffer and pipetted on a streptavidin-coated 96-well microtiter plate to which the immunoreagent mix was added and incubated for 2 h at room temperature, with continuous shaking at 500 rpm. The wells were then washed with washing buffer, the substrate solution added, the color developed (10-20 min) was read at 405 nm against the blank, reference wavelength of 490 nm. The enrichment factor (total amount of apoptosis) was calculated by dividing the absorbance of the sample (A405 nm) by the absorbance of the controls without treatment ([…]).

cdk2, cdk4 and cdk6 = assay: Western blot, cdks in LNCaP cells; type: cell-based, human; conditions: fisetin 10-60 μM, 48 h
Experimental: as §1, with “The lysate was cleared by centrifugal ion al 14,000 g for 15 min at 4° C. and the supernatant (whole cell lysate) was used or immediately stored at −8020 C.” left out
as §2, with “Densitometric measurements of the band in Western blot analysis were performed using digitalized scientific software program UN-SCAN-IT (Silk Scientific Corporation. Orem, Utah.” left out

caspase-3 and -7 = assay: Immunofluorescence staining for active caspase-3 and -7; type: cell-based, human; conditions: LNCaP, fisetin only 40 μM, 48 h
Experimental: Immunofluorescence staining for active caspase-3 and -7. LNCaP cells were incubated with 40 μM concentration of the general caspase inhibitor Z-VAD-FMK for 2 h, followed by the addition of fisetin (40 μM; 48 h) and then harvested. ICT's Magic Red™ substrate-based MR-Caspase assay kit was used for the immunofluorescence staining for caspase-3 and -7. This kit utilizes the fluorophore, cresyl violet. As the 4 amino acid sequence, aspartylglutamylalanylaspartic acid (DEVD) is the optimal sequence for caspase -3 as well as -7, it was coupled to cresyl violet to create the caspase 3/7 substrate, MR-(DEVD)2. […] Following enzymatic hydrolysis at one or both of the aspartic acid amide linkage sites, the mono and non-substituted cresyl violet fluorophores fluoresce red and fluorescence photographs were obtained at 510-560 nm excitation and 610 nm emission.

Bak, Bcl-xL, Bad and Bid = assay: Western blot, Bak, Bad, Bid and Bcl-xL in LNCaP cells; type: cell-based, human; conditions: fisetin 10-60 μM, 48 h
Experimental: as §1, with “The lysate was cleared by centrifugal ion al 14,000 g for 15 min at 4° C. and the supernatant (whole cell lysate) was used or immediately stored at −8020 C.” left out
as §2, with “Densitometric measurements of the band in Western blot analysis were performed using digitalized scientific software program UN-SCAN-IT (Silk Scientific Corporation. Orem, Utah.” left out

[2] = target: T1, ligand binding domain (LBD) of androgen receptor (AR) (Homo sapiens, UniProt P10275); assay: Competition with labeled AR ligand at the ligand binding domain (FIG. 3)
T1 sequence (P10275 669-900 limits assumed): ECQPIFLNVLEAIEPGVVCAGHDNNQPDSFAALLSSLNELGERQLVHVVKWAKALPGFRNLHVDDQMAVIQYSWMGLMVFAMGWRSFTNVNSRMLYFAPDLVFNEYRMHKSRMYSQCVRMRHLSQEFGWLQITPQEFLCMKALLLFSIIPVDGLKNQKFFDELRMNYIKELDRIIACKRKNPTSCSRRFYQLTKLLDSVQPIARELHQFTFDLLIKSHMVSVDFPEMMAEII

O=c1c(O)c(-c2ccc(O)c(O)c2)oc2cc(O)ccc12 [fisetin, 3,3′,4′,7-tetrahydroxyflavone]
Bad, Bax, Bcl2 and Bcl-xL protein expression in Akt-siRNA treated cells [1]: augmented the increase in Bad and Bax and decrease in Bcl2 and Bcl-xL | levels of cytochrome c in the cytosol (cytochrome c): elevated dose-dependently | protein expression of Bax (Bax and Bcl-2): significant increase | protein expression of Bcl-2 (Bax and Bcl-2): significantly decreased | ratio of Bax to Bcl-2 (Bax and Bcl-2): significant dose-dependent shift | protein expression of Smac/DIABLO (XIAP and Smac/DIABLO): induction | protein expression of XIAP (XIAP and Smac/DIABLO): inhibition | apoptosis as compared to control (LNCaP cells; fisetin 10 μM): 40% | apoptosis as compared to control (LNCaP cells; fisetin 20 μM): 64% | apoptosis as compared to control (LNCaP cells; fisetin 40 μM): 103% | apoptosis as compared to control (LNCaP cells; fisetin 60 μM): 106% | protein expression of cdk2, 4 and 6 (cdk2, cdk4 and cdk6): dose-dependent decrease | immunofluorescence staining of active caspase-3 & 7 (caspase-3 and -7): intense staining | Bcl-xL expression (Bak, Bcl-xL, Bad and Bid): significant decrease | protein expression of Bak, Bad and Bid (Bak, Bcl-xL, Bad and Bid): significant increase | competition with labeled AR ligand, interaction with LBD [2]: competes with a labeled AR ligand
